Entries after “also recorded” stand apart in the source; their conditions may differ.
What was measured:
Pig brain tubulin = biological target: T1, Pig brain tubulin (Sus scrofa, UniProt P02550+P02554); experiment: In vitro tubulin polymerization assay; format: biochemical; conditions: pig brain tubulin, absorbance 340 nm, 20 min, 37° C.; read-out: IC50 disruption of tubulin assembly
T1 construct: purchased; host or cells: pig brain
Description: In vitro tubulin polymerization assay Pig brain tubulin was obtained commercially and stored in aliquots at −70° C. […] The absorbance of wavelength at 340 nm was detected every 1 min for 20 min by Spectra Max 190 spectrophotometer (Molecular Device) at 37° C. The results were indicated as mean values from three independent determinations.

tubulin in SKOV-3 cells = experiment: Immunofluorescent analysis of tubulin morphology; format: cell-based, human; conditions: 24 h
Description: After treatment with diluent (0.2% DMSO) or tested compounds at indicated concentrations for 24 h, SKOV-3 cells were fixed with methanol, permeabilized with 0.1% Triton X-100 in PBS and blocked by goat serum. Then the cells were incubated with a-tubulin antibody at 4° C. overnight, followed by incubation with Alexa 488 labeled secondary antibody (Jackson ImmunoResearch) at RT for 1 h. After being stained with DAPI, cells were examined and photographed with a Leica SP5 co-focal fluorescence microscope.

[1] = test system: VEGF induced angiogenesis; experiment: Matrigel plug assay; format: in vivo, Balb/C nude mice; conditions: nude mice, s.c. matrigel with 100 ng/mL VEGF-A165, 2 weeks
Description: 6 weeks old female Balb/C nude mice were purchased from Shanghai Slac Laboratory Animal Co. Ltd. (Shanghai, China). Matrigel containing 100 ng/mL human recombinant VEGF-A165 (Peprotech, Rocky Hill, N.J.) were mixed with indicated concentrations of 69, 70 and 97, or diluent (0.2% DMSO) as negative control at 4° C. Then, 0.5 mL of the matrigel mixture per mouse was injected subcutaneously into nude mice (n=4) in the dorsal region to generate matrigel plugs. 2 weeks later, the mice were sacrificed and matrigel plugs were recovered. Representative data from three independent experiments were shown.

Hela cells = experiment: Cell cycle analysis; format: cell-based, human; conditions: 24 h
Description: 2*10^5 Hela cells per well were seeded into six-well plate and allowed to adhere overnight at 37° C. After treatment with indicated concentrations of 69, 70 and 97, CA-4 as positive control or diluent (0.2% DMSO) as negative control for 24 h, cells were harvested, washed twice with PBS and fixed with 75% ethanol at −20° C. overnight. Then cells were stained with propidium iodide dye (BD Biosciences) for 15 min in dark conditions at room temperature, followed by subjected to flow cytometry (Cytomics FC 500MPL, Beckman Coulter) detection. The results were analyzed by Multicycle AV (for Windows, version 320) software and indicated as mean values from three independent determinations.

[2] = test system: Bax, p53 and cleaved-PARP in HeLa cells; experiment: Expression level of apoptosis associated proteins; format: cell-based, human; conditions: western blotting and qPCR
Description: A. Western blotting: After being treated with candidate compound, cells were harvested and lysed. Then, the lysate was isolated by ultracentrifuge and quantified by BCA assay according to the protocol. After being denatured, equivalent protein of each sample was separated by SDSPAGE gel and wet-transferred onto 0.22 μm nitrocellulose membrane. After being blocked by PBS containing 5% skim milk, the membrane was incubated with primary antibody at 4° C. overnight and secondary antibody at room temperature for 2 h and then visualized by enhanced chemiluminescence kit (Thermo Fisher, USA), sequentially.
B. Quantitative PCR assay: HeLa cells were treated with 69, 70 or 97. The expression level of mRNA of target proteins was tested with qPCR kit (Takara).

KM mice = experiment: Acute toxicity assay; format: in vivo; conditions: single i.p. injection
Description: KM mice were housed individually in a specific pathogen free facility. Groups of mice (n=10 per group, half male and half female) were injected intraperitoneally once with various dosages of 69 (95, 70, 50, 35, 25 mg/kg), 70 (500, 425, 350, 275, 200 mg/kg), 97 (275, 200, 150, 125 and 100 mg/kg) or vehicle (8.3% cremohorp EL and 8.3% alcohol in PBS) as negative control, respectively. 69, 70 and 97 was dissolved in cremeohore EL and alcohol mixture (1:1, v/v) and further diluted with PBS (1:5, v/v). The death of mice were monitored daily and recorded up to 14 days after injection.

A2780 cells xenograft = experiment: Xenografts tumor growth assay in nude mice; format: in vivo, Balb/c nude mice; conditions: i.p. once every 2 days, 69 7.5 mg/kg, 70 12.5 mg/kg, 97 4 or 8 mg/kg
Description: 6 weeks old female Balb/c nude mice were purchased from Shanghai Slac Laboratory Animal Co. Ltd. (Shanghai, China). 2*10^6 A2780 cells suspended in 0.2 mL PBS per mouse was injected subcutaneously into the nude mice. […] Administration of agents or vehicle, or agents and measurement of tumor volumes with a digital caliper was done once every 2 days. Tumor volumes were calculated as volume=shortest diameter (W)^2*longest diameter (L)*0.52. When the average tumor volumes of vehicle treated group reached 2000 mm^3 in diameter, the mice were sacrificed and the tumors were isolated and weighed. Visceral organs of the mice as well as solid tumors were further analyzed by H&E staining.

T1 sequence (P02554 whole entry): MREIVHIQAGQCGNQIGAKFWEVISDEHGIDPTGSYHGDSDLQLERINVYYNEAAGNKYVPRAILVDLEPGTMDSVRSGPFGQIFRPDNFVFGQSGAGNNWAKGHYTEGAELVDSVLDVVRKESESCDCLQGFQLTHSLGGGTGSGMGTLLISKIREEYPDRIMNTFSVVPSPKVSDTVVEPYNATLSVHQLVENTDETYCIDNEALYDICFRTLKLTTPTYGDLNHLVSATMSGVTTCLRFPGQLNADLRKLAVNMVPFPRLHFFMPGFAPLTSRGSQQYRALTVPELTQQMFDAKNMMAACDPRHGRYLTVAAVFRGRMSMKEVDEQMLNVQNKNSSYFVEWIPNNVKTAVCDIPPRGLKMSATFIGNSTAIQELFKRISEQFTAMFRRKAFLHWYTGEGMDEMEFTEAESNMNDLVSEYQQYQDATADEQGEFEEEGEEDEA
T1 sequence (P02550 whole entry): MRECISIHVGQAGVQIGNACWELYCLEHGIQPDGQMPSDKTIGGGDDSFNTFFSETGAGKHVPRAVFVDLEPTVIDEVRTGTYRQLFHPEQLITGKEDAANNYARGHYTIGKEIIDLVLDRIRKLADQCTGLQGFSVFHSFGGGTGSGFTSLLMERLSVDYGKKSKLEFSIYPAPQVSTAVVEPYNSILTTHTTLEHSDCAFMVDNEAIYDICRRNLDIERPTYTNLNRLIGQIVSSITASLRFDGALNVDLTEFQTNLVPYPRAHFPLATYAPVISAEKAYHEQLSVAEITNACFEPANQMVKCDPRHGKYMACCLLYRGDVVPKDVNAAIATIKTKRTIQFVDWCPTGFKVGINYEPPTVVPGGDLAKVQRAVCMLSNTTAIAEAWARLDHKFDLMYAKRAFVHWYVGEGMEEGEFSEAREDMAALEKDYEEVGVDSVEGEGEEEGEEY

Compound: COc1ccc([C@H]2[C@H](C)C(=O)N2c2cc(OC)c(OC)c(OC)c2)cc1O [Compound 97, (3S,4R)-4-(3-hydroxy-4-methoxyphenyl)-3-methyl-1-(3,4,5-trimethoxyphenyl)azetidin-2-one]
- IC50 (Pig brain tubulin): 1600 nM
- tubulin assembly (immunofluorescence) (tubulin in SKOV-3 cells): significantly inhibit tubulin aggregation; also recorded: strongly inhibit tubulin assembly
- VEGF induced angiogenesis in matrigel plugs [1]: significantly inhibit VEGF-mediated neovascularization; also recorded: suppressed VEGF induced angiogenesis
- cell cycle arrest (G2/M, mitotic arrest) (Hela cells): significantly arrest cells in the G2/M phase; also recorded: significantly induce cellular mitotic arrest
- expression of Bax, p53 and cleaved-PARP [2]: significantly promote the expression of the proapoptotic protein Bax, the tumor suppressor gene p53, and the cleaved DNA repair enzyme; also recorded: significantly induce the expression of Bax, p53 and cleaved-PARP
- No. of dead mice 5-14 days (KM mice; 100 mg/kg): 0
- No. of dead mice 1 day (KM mice; 100 mg/kg): 0
- No. of dead mice 2 days (KM mice; 100 mg/kg): 0
- No. of dead mice 3 days (KM mice; 100 mg/kg): 1
- No. of dead mice 4 days (KM mice; 100 mg/kg): 0
- Survival (%) on day 14 (KM mice; 100 mg/kg): 90%
- Total death (KM mice; 100 mg/kg): 1
- No. of dead mice 5-14 days (KM mice; 125 mg/kg): 0
- No. of dead mice 1 day (KM mice; 125 mg/kg): 0
- No. of dead mice 2 days (KM mice; 125 mg/kg): 2
- No. of dead mice 3 days (KM mice; 125 mg/kg): 1
- No. of dead mice 4 days (KM mice; 125 mg/kg): 0
- Survival (%) on day 14 (KM mice; 125 mg/kg): 70%
- Total death (KM mice; 125 mg/kg): 3
- No. of dead mice 5-14 days (KM mice; 150 mg/kg): 0
- No. of dead mice 1 day (KM mice; 150 mg/kg): 2
- No. of dead mice 2 days (KM mice; 150 mg/kg): 4
- No. of dead mice 3 days (KM mice; 150 mg/kg): 0
- No. of dead mice 4 days (KM mice; 150 mg/kg): 0
- Survival (%) on day 14 (KM mice; 150 mg/kg): 40%
- Total death (KM mice; 150 mg/kg): 6
- No. of dead mice 5-14 days (KM mice; 200 mg/kg): 0
- No. of dead mice 1 day (KM mice; 200 mg/kg): 1
- No. of dead mice 2 days (KM mice; 200 mg/kg): 4
- No. of dead mice 3 days (KM mice; 200 mg/kg): 2
- No. of dead mice 4 days (KM mice; 200 mg/kg): 0
- Survival (%) on day 14 (KM mice; 200 mg/kg): 30%
- Total death (KM mice; 200 mg/kg): 7
- No. of dead mice 5-14 days (KM mice; 275 mg/kg): 0
- No. of dead mice 1 day (KM mice; 275 mg/kg): 2
- No. of dead mice 2 days (KM mice; 275 mg/kg): 4
- No. of dead mice 3 days (KM mice; 275 mg/kg): 2
- No. of dead mice 4 days (KM mice; 275 mg/kg): 1
- Survival (%) on day 14 (KM mice; 275 mg/kg): 10%
- Total death (KM mice; 275 mg/kg): 9
- H&E staining of liver, kidney and spleen (A2780 cells xenograft): no abnormal areas are observed in tissue staining of liver, kidney and spleen; also recorded: no detectable abnormalities were observed in liver, kidney and spleen
- H&E staining of tumor sections (A2780 cells xenograft): cause tumor tissue to produce necrotic areas; also recorded: extensive areas of necrosis or cell death
- mouse body weight (A2780 cells xenograft): no significant influence on mouse body weight; also recorded: no significant weight loss observed
- tumor growth in vivo (A2780 cells xenograft): significantly inhibit tumor growth in vivo; also recorded: anti-tumor activities in vivo
